Where two headings read alike, the source gives them in different places.
Experiment: TRM-201-PK-102 single-dose four-period crossover pharmacokinetic study, fasted healthy subjects
Format: in vivo, human
Details: human, plasma, oral; for Cmax / AUC(0-inf): 102 study
Procedure: A Single-Dose, Open-Label, Phase 1, Four-Period Crossover Pharmacokinetic Study of TRM-201 (Rofecoxib) 12.5 mg, 17.5 mg, 20 mg and 25 mg Administered to Healthy Subjects in a Fasting State, with Comparison to Historical Pharmacokinetic Parameters of Previously Marketed Rofecoxib (“TRM-201-PK-102” or “102 PK Study”)
This was a single-center, open-label four-period crossover PK study of TRM-201. The study included 24 subjects who received TRM-201 as a single dose of 12.5 mg, 17.5 mg, 20 mg and 25 mg to assess the PK of TRM-201 in healthy volunteers under fasted conditions. Subjects were randomized to one of four treatment sequences. The PK data from the current study along with the data from the TRM-201-PK-101 study (Example 4) was used to compare to historical pharmacokinetic parameters of previously marketed rofecoxib, all in a fasted state.
In each of the four dosing periods, subjects fasted overnight for at least 10 hours before study drug dosing. While fasting, subjects had nothing to eat and only water to drink. Water was permitted as desired, except for the period between 1 hour before and 1 hour after study drug dosing (excepting as permitted for dosing). After the 2-hour PK blood sample, subjects were allowed one 250-mL cup of clear apple juice. After the 4-hour PK blood sample, subjects were served a light lunch. Following the light lunch, subjects received standardized meals according to the clinic's standard procedures that were scheduled at consistent times and at least 15 minutes before or 15 minutes after PK sampling time points. Blood was withdrawn for PK analysis at predefined time points. For each dosing period the last time point was 120 hours after dosing with study drug (Day 6). After the 120 hour PK sample, the EOP procedures was completed, subjects remained in-clinic for the in-between dose period day (Days 7, 14, and 21) and began the next dosing period starting with an overnight fast for at least 10 hours on Day −1 of the subsequent dosing period. Pharmacokinetic and safety endpoints were evaluated.
The study drug, TRM-201, was an immediate-release tablet that contained 12.5 mg rofecoxib, 17.5 mg rofecoxib, 20 mg rofecoxib or 25 mg rofecoxib. The 7.25-mm diameter tablets were off-white, round, and uncoated with no markings. TRM-201 tablets were for oral administration.
For each sample, approximately 3 mL of blood were drawn. The samples were obtained by a straight stick or via an in-dwelling intravenous (IV) catheter in a forearm vein. Additional details for the collection, processing, storage, and shipping of PK samples were provided in the study manual.
Pharmacokinetic samples will be analyzed using a validated assay for rofecoxib in human plasma. Assay results and validation details will be provided in a separate bioanalytical report. The following PK parameters for rofecoxib will be calculated as primary endpoints using standard noncompartmental methods: AUC0-∞ and Cmax. Secondary endpoints include Tmax, and t1/2. Additional PK parameters (e.g., CL/F, and Vd/F) will also be calculated using standard noncompartmental methods.
Individual plasma concentrations for rofecoxib and PK sampling time deviation data will be presented in a data listing. Plasma concentration data will be summarized by time point using the following descriptive statistics: number of subjects, arithmetic mean, SD, coefficient of variation (CV), geometric mean, natural-log-scale SD, geometric CV, median, minimum, and maximum. Individual plasma concentration versus actual time profiles were presented on both linear and semilogarithmic scales. Additionally, arithmetic mean concentration versus scheduled time profiles were presented on linear scales and geometric means on semilogarithmic scales.
The PK parameters of rofecoxib were analyzed based on the actual sampling times. […]

[1] = 25 mg, read-out: arithmetic mean plasma concentration
[2] = 25 mg, read-out: geometric mean plasma concentration

## CS(=O)(=O)c1ccc(C2=C(c3ccccc3)C(=O)OC2)cc1 [TRM-201, 4-[4-(methylsulfonyl)phenyl]-3-phenyl-2(5H)-furanone]
25 mg, 41-52 years, read-out: arithmetic mean Cmax
  Cmax: 326 ng/mL
25 mg, 41-52 years, read-out: geometric mean AUC0-∞
  AUC(0-inf): 4580 ng·h/mL
25 mg, 41-52 years, read-out: geometric mean Cmax
  Cmax: 321 ng/mL
25 mg, 53-60 years, read-out: arithmetic mean AUC0-∞
  AUC(0-inf): 4940 ng·h/mL
25 mg, 53-60 years, read-out: arithmetic mean Cmax
  Cmax: 354 ng/mL
25 mg, 53-60 years, read-out: geometric mean AUC0-∞
  AUC(0-inf): 4880 ng·h/mL
25 mg, 53-60 years, read-out: geometric mean Cmax
  Cmax: 347 ng/mL
25 mg, Black or African-American subjects, read-out: arithmetic mean AUC0-∞
  AUC(0-inf): 3990 ng·h/mL
25 mg, Black or African-American subjects, read-out: arithmetic mean Cmax
  Cmax: 340 ng/mL
25 mg, Black or African-American subjects, read-out: geometric mean AUC0-∞
  AUC(0-inf): 3940 ng·h/mL
25 mg, Black or African-American subjects, read-out: geometric mean Cmax
  Cmax: 339 ng/mL
25 mg, Hispanic or Latino subjects, read-out: arithmetic mean AUC0-∞
  AUC(0-inf): 4980 ng·h/mL
25 mg, Hispanic or Latino subjects, read-out: arithmetic mean Cmax
  Cmax: 358 ng/mL
25 mg, Hispanic or Latino subjects, read-out: geometric mean AUC0-∞
  AUC(0-inf): 4870 ng·h/mL
25 mg, Hispanic or Latino subjects, read-out: geometric mean Cmax
  Cmax: 351 ng/mL
25 mg, White subjects, read-out: arithmetic mean AUC0-∞
  AUC(0-inf): 4800 ng·h/mL
25 mg, White subjects, read-out: arithmetic mean Cmax
  Cmax: 351 ng/mL
25 mg, White subjects, read-out: geometric mean AUC0-∞
  AUC(0-inf): 4650 ng·h/mL
25 mg, White subjects, read-out: geometric mean Cmax
  Cmax: 341 ng/mL
25 mg, body weight 47-70 kg, read-out: arithmetic mean AUC0-∞
  AUC(0-inf): 4450 ng·h/mL
25 mg, body weight 47-70 kg, read-out: arithmetic mean Cmax
  Cmax: 385 ng/mL
25 mg, body weight 47-70 kg, read-out: geometric mean AUC0-∞
  AUC(0-inf): 4310 ng·h/mL
25 mg, body weight 47-70 kg, read-out: geometric mean Cmax
  Cmax: 376 ng/mL
25 mg, body weight 70.1-77 kg, read-out: arithmetic mean AUC0-∞
  AUC(0-inf): 5470 ng·h/mL
25 mg, body weight 70.1-77 kg, read-out: arithmetic mean Cmax
  Cmax: 371 ng/mL
25 mg, body weight 70.1-77 kg, read-out: geometric mean AUC0-∞
  AUC(0-inf): 5410 ng·h/mL
25 mg, body weight 70.1-77 kg, read-out: geometric mean Cmax
  Cmax: 368 ng/mL
25 mg, body weight 77.1-90 kg, read-out: arithmetic mean AUC0-∞
  AUC(0-inf): 4130 ng·h/mL
25 mg, body weight 77.1-90 kg, read-out: arithmetic mean Cmax
  Cmax: 299 ng/mL
25 mg, body weight 77.1-90 kg, read-out: geometric mean AUC0-∞
  AUC(0-inf): 4040 ng·h/mL
25 mg, body weight 77.1-90 kg, read-out: geometric mean Cmax
  Cmax: 294 ng/mL
25 mg, non-Hispanic or non-Latino subjects, read-out: arithmetic mean AUC0-∞
  AUC(0-inf): 4280 ng·h/mL
25 mg, non-Hispanic or non-Latino subjects, read-out: arithmetic mean Cmax
  Cmax: 340 ng/mL
25 mg, non-Hispanic or non-Latino subjects, read-out: geometric mean AUC0-∞
  AUC(0-inf): 4150 ng·h/mL
25 mg, non-Hispanic or non-Latino subjects, read-out: geometric mean Cmax
  Cmax: 331 ng/mL
[1]
  concentration at 15 minutes: 5.63 ng/mL
  concentration at 45 minutes: 159 ng/mL
[2]
  concentration at 15 minutes: 1.37 ng/mL
  concentration at 45 minutes: 97.6 ng/mL
male, 12.5 mg, males, read-out: arithmetic mean AUC0-∞
  AUC(0-inf): 1750 ng·h/mL
male, 12.5 mg, males, read-out: arithmetic mean Cmax
  Cmax: 132 ng/mL
male, 12.5 mg, males, read-out: geometric mean AUC0-∞
  AUC(0-inf): 1580 ng·h/mL
male, 12.5 mg, males, read-out: geometric mean Cmax
  Cmax: 127 ng/mL
male, 17.5 mg, males, read-out: arithmetic mean AUC0-∞
  AUC(0-inf): 2860 ng·h/mL
male, 17.5 mg, males, read-out: arithmetic mean Cmax
  Cmax: 201 ng/mL
male, 17.5 mg, males, read-out: geometric mean AUC0-∞
  AUC(0-inf): 2710 ng·h/mL
male, 17.5 mg, males, read-out: geometric mean Cmax
  Cmax: 196 ng/mL
male, 20 mg, males, read-out: arithmetic mean AUC0-∞
  AUC(0-inf): 3130 ng·h/mL
male, 20 mg, males, read-out: arithmetic mean Cmax
  Cmax: 234 ng/mL
male, 20 mg, males, read-out: geometric mean AUC0-∞
  AUC(0-inf): 2940 ng·h/mL
male, 20 mg, males, read-out: geometric mean Cmax
  Cmax: 224 ng/mL
male, 25 mg, males, read-out: arithmetic mean AUC0-∞
  AUC(0-inf): 4080 ng·h/mL
male, 25 mg, males, read-out: arithmetic mean Cmax
  Cmax: 302 ng/mL
male, 25 mg, males, read-out: geometric mean AUC0-∞
  AUC(0-inf): 3940 ng·h/mL
male, 25 mg, males, read-out: geometric mean Cmax
  Cmax: 298 ng/mL
male, 25 mg, printed 'For males' (second statement, after the females' arithmetic means), read-out: geometric mean AUC0-∞
  AUC(0-inf): 5020 ng·h/mL
male, 25 mg, printed 'For males' (second statement, after the females' arithmetic means), read-out: geometric mean Cmax
  Cmax: 382 ng/mL
